From PMC6895213, “Four New Picrotoxane-Type Sesquiterpenes From Dendrobium nobile Lindl” (Frontiers in Chemistry, 2019)

Legend:
[1] = test system: K562 cell line; assay: MTT cytotoxicity assay, K562; type: cell-based; settings: MTT method, K562 cells
Description: (§1) The MTT method optimized by Mosmann ([1983]) was performed in vitro to test the cytotoxic activity of compounds 1–8. Cisplatin was used as a positive control.
(§2) Compounds 1–8 were tested for inhibitory activity against α-glycosidase using the PNPG method and for cytotoxic effects on SGC-7901, K562, A549, BEL-7402, and Hela cell lines using the MTT method (See Supplementary Table 1 in the Supplementary Material).

[2] = test system: Hela cell line; assay: MTT cytotoxicity assay, Hela; type: cell-based; settings: MTT method, Hela cells
Description: as §1, §2

[3] = test system: BEL-7402 cell line; assay: MTT cytotoxicity assay, BEL-7402; type: cell-based; settings: MTT method, BEL-7402 cells
Description: as §1, §2

[4] = biological target: α-glycosidase; assay: α-glycosidase inhibitory activity (PNPG method); type: biochemical; settings: yeast enzyme EC 3.2.1.20
Description: Optical rotations were measured on a MCP 5100 modular compact polarimeter (Anton Paar, America). IR spectra were taken on a Nicolet 380 FT-IR instrument (Thermo, USA) as KBr discs. NMR spectra were recorded on a Bruker Avance III 500 MHz NMR spectrometer (Bruker, German). ESIMS and HRESIMS were recorded with amaZon SL (Bruker) or Compact QqTOF (Bruker). ECD spectra were measured by APL Chiascan (Applied Photophysics Ltd., England). Semi-preparative HPLC was carried out using a C18 column (Cosmosil-pack, 10 × 250 mm, 5 μm, 4 mL/min, Nacalai Tesque). C18 gel (20–45 μm, Fuji SilysiSa Chemical Co., Ltd., Greenville, NC, UA), Silica gel (60–80, 200–300 mesh, Qingdao Marine Chemical Co., Ltd., Qingdao, China), Sephadex LH-20 (Merck, Kenilworth, NJ, USA) were used for column chromatograghy. α-glycosidase (Sigma-Aldrich, UA) used for the bioactivity was derived from yeast and its EINECS (EC) unmber is 3.2.1.20.
The method optimized by Jong et al. ([2007]) was performed in vitro to test the α-glucosidase inhibitory activity of compounds 1–8. Acarbose was used as positive control.
as §2

[5] = test system: SGC-7901 cell line; assay: MTT cytotoxicity assay, SGC-7901; type: cell-based; settings: MTT method, SGC-7901 cells
Description: as §1, §2

[6] = test system: A549 cell line; assay: MTT cytotoxicity assay, A549; type: cell-based; settings: MTT method, A549 cells
Description: as §1, §2

[7] = test system: activated murine macrophage-like cell line RAW 264.7; parameters: method as in Zhang et al., 2007b; settings: activated RAW 264.7 cells; ref Zhang et al., 2007b; cited from earlier work

Row | SMILES | IC50 ([1]; Homo sapiens) | IC50 ([2]; Homo sapiens) | IC50 ([3]; Homo sapiens) | IC50 [4] | IC50 ([5]; Homo sapiens) | IC50 ([6]; Homo sapiens) | melting point | inhibitory effects on NO production [7] | IC50 [1] | IC50 [2] | IC50 [3] | IC50 [5] | IC50 [6]
1 | CC(C)C1C2OC(=O)C1C1CCC3C(=O)OC2C31C (stereo not shown) [Compound 3, Dendroterpene C] | > 50 µM | > 50 µM | > 50 µM | 970 µM | > 50 µM | > 50 µM | – | – | – | – | – | – | –
2 | CC(C)C1C2OC(=O)C1C1CCC3(O)C(=O)OC2C13C (stereo not shown) [Compound 4, Dendroterpene D] | > 50 µM | > 50 µM | > 50 µM | > 1000 µM | > 50 µM | > 50 µM | 167 to 168 °C | – | – | – | – | – | –
3 | Oc1ccc(CCOCCc2ccc(O)cc2)cc1 [Compound 8, di-[2-(4-hydroxyphenyl)] ethyl ether] | > 50 µM | > 50 µM | > 50 µM | 300 µM | > 50 µM | > 50 µM | – | – | – | – | – | – | –
4 | C[C@H]1O[C@H](O[C@H]2[C@H](O)[C@@H](O)[C@@H](O[C@H]3[C@H](O)[C@@H](O)C(O)O[C@@H]3CO)O[C@@H]2CO)[C@H](O)[C@@H](O)[C@@H]1N[C@H]1C=C(CO)[C@@H](O)[C@H](O)[C@H]1O (stereo partly shown) [Acarbose, reference compound] | – | – | – | 720 µM | – | – | – | – | – | – | – | – | –
5 | COc1cccc(CCc2cc(OC)c(O)c3c2C(Cc2cccc(OC)c2)c2cc(O)c(O)c(OC)c2O3)c1 (stereo not shown) [Compound 5, nobilin E] | 10.4 µM | 22.2 µM | 20.1 µM | 30 µM | 17.3 µM | 29 µM | – | exhibited inhibitory effects on NO production | – | – | – | – | –
6 | N.N.[Cl][Pt][Cl] [Cisplatin, reference compound] | – | – | – | – | – | – | – | – | 3.08 µM | 11.3 µM | 4.02 µM | 4.11 µM | 1.93 µM
7 | CC(C)C1C2OC(=O)C1C1CC=CC1(C)C2NC=O (stereo not shown) [Compound 1, Dendroterpene A] | > 50 µM | > 50 µM | > 50 µM | > 1000 µM | > 50 µM | > 50 µM | 185 to 186 °C | – | – | – | – | – | –
8 | COc1cccc(CC2C3=C(Oc4c2cc(O)c(O)c4OC)C(=O)c2cc(O)c4cc(O)ccc4c2C3=O)c1 (stereo not shown) [Compound 6, dendrocandin V] | 28.2 µM | > 50 µM | > 50 µM | 680 µM | > 50 µM | > 50 µM | – | – | – | – | – | – | –
9 | CC(=O)/C=C/[C@@]1(O)C(C)=CC(=O)CC1(C)C [Compound 7, S(+)-dehydrovomifoliol] | > 50 µM | > 50 µM | > 50 µM | > 1000 µM | > 50 µM | > 50 µM | – | – | – | – | – | – | –
10 | CC(C)C1C2OC(=O)C1C1(O)CC=CC1(C)C2NC=O (stereo not shown) [Compound 2, Dendroterpene B] | > 50 µM | > 50 µM | > 50 µM | > 1000 µM | > 50 µM | > 50 µM | 200 to 201 °C | – | – | – | – | – | –
